Reference: patent publication US20250295790A1, “LECTIN-TARGETING CONJUGATES” (Helmholtz-Zentrum für Infektionsforschung GmbH, priority 2021, published 2025)
Values joined by “and” are separate entries in the source; they are usually repeats but may differ in a detail not shown here. Equal entries are not always repeated. “Also recorded” adds a separate entry of the source.

Assays:
[1] = Plasma protein binding assay (RED), murine plasma; type: in vitro ADME; conditions: mouse blood plasma
Procedure: Plasma protein binding was assessed using the rapid equilibrium device (RED) system from ThermoFisher. […] Dialysis buffer and plasma samples were added to the respective chambers according the manufacturer's protocol. The RED plate was sealed with a tape and incubated at 37° C. for 2 hours at 800 rpm on an Eppendorf MixMate® vortex-mixer. Then samples were withdrawn from the respective chambers. To 25 μl of each dialysis sample, 25 μl of plasma and to 25 μl of plasma sample, 25 l of dialysis buffer was added. […] Samples were incubated for 30 min on ice. Then samples were centrifuged at 4° C. at 2270 ref for 10 min. Supernatants were transferred to Greiner V-bottom 96-well plates and sealed with a tape. Then samples were subjected to HPLC-MS/MS analysis as described in the section ‘HPLC-MS/MS analysis’. The percentage of bound compound was calculated as follows: […]
Cell samples as well as plasma stability, plasma protein binding and metabolic stability samples were analysed using an Agilent 1290 Infinity II coupled to an AB Sciex 6500plus mass spec-trometer. LC conditions were as follows: column: Agilent Zorbax Eclipse Plus C18, 50×2.1 mm, 1.8 m; temperature: 30° C.; injection volume: 5 l per sample; flow rate: 700 l/min. Solvents: A: water+0.1% formic acid; solvent B: 95% acetonitrile/5% H2O+0.1% formic acid. […]

[2] = Prodrug activation assay in human blood plasma spiked with P. aeruginosa PA14 culture supernatant; type: in vitro ADME, Pseudomonas aeruginosa PA14; conditions: 50% human blood plasma spiked with 10% P. aeruginosa culture supernatant, within 3 h
Procedure: In the prodrug activation assay, the bacterial strain Pseudomonas aeruginosa PA14 wt (DSM 19882) was used. The strain was obtained from the German Collection of Microorganisms and Cell Cultures (DSMZ).
P. aeruginosa PA14 was streaked on LB-agar plates (1% agar) from glycerol stocks and incubated at 37° C. overnight. 2-5 colonies were picked and dispersed in 10 mL LB (10 g/L trypton, 10 g/L NaCl, 5 g/L yeast extracts). This dispersion was incubated overnight at 37° C., 180 rpm under high humidity. The culture was centrifuged (4000 ref, room temperature, 10 min) and the supernatant was filtered (0.22 m pore size). […]
(§1) A 1 mM solution of the studied compound was prepared in PBS (150 mM NaCl, 2.6 mM KCl, 1.4 mM KH2PO4, 10 mM Na2HPO4, pH 7.4) with 20% DMSO. 50 μL of this solution was diluted in 950 μL matrix or human plasma (spiked with 10% LB) on ice. After brief vortex, 100 μL were immediately treated with 100 μL ice-cold MeCN (spiked with […] diphenhydramine as internal standard). The rest of the solution was incubated at 37° C. and 500 rpm in an eppendorf thermomixer. At various time points (30, 60, 120, 180 min), 100 L sample were taken and treated as described above. […] The AUC of the parent drug and its cleavage products and the internal standard was quantified using Compass QuantAnalysis quantification software. The relative AUC was calculated by AUC (compound)/AUC(ISTD). Procaine was used as a positive control as it readily degrades in human plasma.

[3] = Stability of conjugates in human blood plasma spiked with LB; type: in vitro ADME; conditions: 50% human blood plasma spiked with 10% LB, within three hours
Procedure: as §1

[4] = Microsomal stability assay, human S9 liver microsomes; type: in vitro ADME; conditions: for metabolic stability t1/2 HLM: human S9 liver fractions; for CLmic S9human: microsomal clearance, calculated from t1/2
Procedure: S9 liver microsomes (mouse and human, Thermo Fisher) were thawed slowly on ice. 20 mg/ml of microsomes, 2 μl of a 100 μM solution of every compound and 183 μl of 100 mM phosphate buffer were incubated 5 min at 37° C. in a water bath. Reactions were initiated using 10 μl of 20 mM NADPH (Roth). Samples were incubated in three replicates at 37° C. under gentle agitation at 150 rpm.
At 0, 5, 15, 30, and 60 min, reactions were terminated by the addition of 180 μl acetonitrile using a Mantis Formulatrix® dispenser. Samples were vortexed for 5 min using an Eppendorf MixMate® vortex mixer and centrifuged at 2270 ref for 20 min at 4° C. The supernatants were transferred to 96-well Greiner V-bottom plates, sealed and analysed according to the section HPLC-MS/MS analysis. Peak areas of the respective time point of the compounds were normalized to the peak area at time point 0 min. Then half-life was calculated using linear regression (Microsoft Excel®). Clint [μl/min/mg protein] was calculated using the following formula: […]
Cell samples as well as plasma stability, plasma protein binding and metabolic stability samples were analysed using an Agilent 1290 Infinity II coupled to an AB Sciex 6500plus mass spec-trometer. LC conditions were as follows: column: Agilent Zorbax Eclipse Plus C18, 50×2.1 mm, 1.8 m; temperature: 30° C.; injection volume: 5 l per sample; flow rate: 700 l/min. Solvents: A: water+0.1% formic acid; solvent B: 95% acetonitrile/5% H2O+0.1% formic acid. Gradient for 2, 36 and 37: 99% A from 0 min until 1 min; 99-0% A from 1.0 until 2.2 min, 0% A until 3.2 min. Gradient for naproxene: 99% A from 0 min until 1 min; 99-0% A from 1.0 until 5.5 min, 0% A until 6.0 min. Gradient for […] and […]: 99% A from 0 min until 1.0 min, 99-0% A from 1.0 until 3.5 min, 0% A until 3.7 min. Mass transitions for controls and compounds are depicted in table 5.

[5] = target: LecB PA14 (Pseudomonas aeruginosa, UniProt A0A0H2ZE85); type: binding; conditions: target LecB PA14
Chain of LecB PA14 (A0A0H2ZE85 entry or part of it): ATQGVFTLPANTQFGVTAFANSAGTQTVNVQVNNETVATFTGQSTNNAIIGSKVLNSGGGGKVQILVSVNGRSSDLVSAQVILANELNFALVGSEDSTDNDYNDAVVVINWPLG
Procedure: LecB (LecB PAO1 according to Hauck et al. and LecB PA14 according to Sommer et al.): A serial dilution of the test compounds was prepared in TBS/Ca, with 20% DMSO as cosolvent. A concentrated solution of LecB PAO1 or PA14 was diluted in TBS/Ca together with the fluorescent reporter ligand (N-(fluorescein-5-yl)-N′-(α-l-fucopyranosyl ethylen)-thiocarbamide) to yield concentrations of 300 nM and 20 nM, respectively. 10 μL of this mix was added to 10 μL serial dilutions of the test compounds in a black 384-well microtiter plates (Greiner Bio-One, Germany, cat. no. 781900) in triplicates. After centrifugation (2680 ref, 1 min, room temperature), the reactions were incubated for 4-8 h at room temperature in a humidity chamber. Fluorescence was measured and analysed as for LecA. Bottom and top plateaus were fixed according to the control compound in each assay (1-fucose) and the data was re-analysed with these values fixed. A minimum of three independent measurements on three plates was performed for each inhibitor.

[6] = test system: A549 cells; assay: Cytotoxicity assay (MTT); type: cell-based, human; conditions: 24 h
Excerpt: Then supernatant was transferred to a 96-well-plate. […] The experiment was repeated at least three times. The error bars indicate the standard deviation.

In the case of `CC(C)C[C@H](NC(=O)CNC(=O)[C@H](C)NC(=O)c1ccc(S[C@@H]2O[C@H](CO)[C@H](O)[C@H](O)[C@H]2O)cc1)C(=O)N[C@@H](C)C(=O)N[C@H]1CCN(c2cc3c(cc2F)c(=O)c(C(=O)O)cn3C2CC2)C1` [Compound 36], the “plasma protein binding mouse” value [1] is reported as 74%, the “release of antibiotic cargo” value [2] is reported as “release their antibiotic cargo; also recorded: released a significant amount of their antibiotic cargo; also recorded: efficiently released their antibiotic cargo” and the “release of antibiotic cargo” value [3] is reported as “no significant release of their antibiotic cargo”. The “metabolic stability t1/2 HLM” value [4] was 1.55 h and the “CLmic S9human” value [4] was 15 μL/min/mg protein.
With `CC(C)CC(NC(=O)CNC(=O)C(C)NC(=O)c1ccc(S(=O)(=O)NCC2OC(C)C(O)C(O)C2O)cc1)C(=O)NC(C)C(=O)NC1CCN(c2cc3c(cc2F)c(=O)c(C(=O)O)cn3C2CC2)C1` (stereo not shown) [Compound 37] the “plasma protein binding mouse” value [1] was 30% and 30.1 ± 9.2%, the “release of antibiotic cargo” value [2] was “release their antibiotic cargo; also recorded: released a significant amount of their antibiotic cargo; also recorded: efficiently released their antibiotic cargo” and the “release of antibiotic cargo” value [3] was “no significant release of their antibiotic cargo”. For the same compound, the IC50 [5] was 750 ± 160 nM, the Ki ([5]; calculated as Ki from IC50, read-out: Ki ± s.d.) was 270 ± 60 nM and the “metabolic stability t1/2 HLM” value [4] was 2.97 h. For the same compound, the “CLmic S9human” value [4] was 7.8 μL/min/mg protein and the IC50 [6] was > 50000 nM.
